Laboratory results published in US8629100B2, “Method of inhibiting clostridium difficile by administration of oritavancin” (The Medicines Company, priority 2007, dated 2014).
Values after ≈ are worked out from the molar mass of the structure shown.

Tests used:
Type in all cases: cell-based
[1] = tested on: genotypically distinct C. difficile (n = 33); assay: Agar incorporation MIC; details: for MIC90 / MIC range / MIC: AI; for MIC: read-out: GEO MIC
Excerpt: Thirty-three genotypically distinct (by PCR ribotyping) C. difficile isolates were selected from a library of strains at the Leeds General Infirmary (Leeds, UK). Representative isolates of epidemic C. difficile PCR ribotypes 001, 106 and 027 were included in the panel. Control isolates of Staphylococcus aureus ATCC 29213, Enterococcus faecalis ATCC 29212 and Bacteroides fragilis ATCC 25285 were included in all MIC determinations to ensure procedure accuracy.
Agar incorporation MICs were determined based on the method of Freeman and Wilcox (J Antimicrob Chemother 2001; 47: 244-6). Briefly, bacteria were cultured in Schaedler's anaerobic broth (Oxoid, Basingstoke, UK) at 37° C. for 24 h in an anaerobic cabinet (Don Whitley Scientific, Shipley). […] Oritavancin was prepared in 0.002% P80. All antimicrobial solutions were sterilized by filtration through 0.22 um syringe filters. […] Wilkins Chalgren agar (Oxoid) incorporating doubling dilutions of antimicrobial agents (0.03-16 mg/L) was prepared with and without 0.002% P80 and with and without 2% lysed horse blood (E&O Labs, Bonneybridge, UK). All media and diluents were pre-reduced overnight in the anaerobic cabinet. Bacterial cultures were diluted in sterile saline and inoculated onto the surface of agar incorporation agar plates using a multipoint inoculator (˜10^4 cfu). Agar incorporation plates were incubated anaerobically for 48 h. MIC endpoints were read as the lowest concentration of antimicrobial agent where there is no apparent growth (disregarding a visible haze of growth or a single colony).

[2] = tested on: C. difficile vegetative cultures and spores; assay: Spiral gradient endpoint analysis MIC; details: data not shown
Method: C. difficile PCR ribotypes 001, 106 and 027 were inoculated onto Columbia blood agar and incubated anaerobically (37° C.) for 10 d. Growth was harvested into sterile saline and alcohol shocked in an equal volume of 100% ethanol for 1 h. Alcohol-shocked spore suspensions were mixed by vortexing and sonicated for 5 minutes at room temperature. C. difficile phase-bright (non-germinated) spores were separated from phase-dark (germinated) spores and cellular debris by density gradient centrifugation (4000 rpm 15 minutes) following layering onto 50% (v/v in phosphate buffered saline) Urografin 370 (Schering, Germany). The density gradient centrifugation step was performed twice. Pellets of purified spores were re-suspended in sterile saline (1 mL per 10 Columbia blood agar plates harvested). Percentage phase-bright spores, phase-dark spores and vegetative cells were recorded using phase-contrast microscopy (×100 magnification).
A spiral plater (WASP2, Don Whitley Scientific, UK) was used to apply a logarithmic antibiotic gradient onto the surface of pre-dried (37° C. 20 minutes) Brazier's agar (pH 7). Agar with logarithmic antimicrobial gradients applied to their surface remained at room temperature for 1 h to allow the antimicrobial agent to adsorb into the agar. C. difficile vegetative cultures and spores (˜10^7 cfu/mL) were inoculated onto the agar surface (FIG. 1) with a sterile cotton swab and incubated anaerobically (37° C., 24 h). D-values were measured (in mm) and converted to MICs (Paton, J. H.1990. Int J Exp Clin Chemother. 9, 31-38).

[3] = tested on: genotypically distinct C. difficile (n = 33); assay: Broth macrodilution MIC; details: Clostridioides difficile, BM, broth macrodilution
[4] = tested on: C. difficile PCR ribotype 027 spores; assay: Phase-contrast microscopy of spore germination/outgrowth; details: 10 mg/L for 2 h, washed 3x in PBS
Method: C. difficile spores were also exposed to 10 mg/L antimicrobial for 2 h, washed 3× in sterile PBS, re-suspended and inoculated into Brazier's broth medium (pH 7). Samples were removed at 2, 4, 6, 24, 32 and 48 h. Slides were viewed under phase-contrast microscopy and percentages of phase-bright spores, phase-dark spores and vegetative cells were recorded (FIG. 4).
Statistical analyses were performed by transforming percentage data using an Arcsin Transformation and analysed using a Wilcoxon signed rank test. P<0.05 was considered statistically significant. Supra-MIC concentrations of all antimicrobials prevented outgrowth but not germination of C. difficile spores.

[5] = tested on: C. difficile spores (PCR ribotypes 001, 106 and 027); assay: Viability (recovery) of spores after antibiotic exposure, cellulose acetate filtration (Examples 3A, 3B)
Method: The experiments were in general performed by mixing C. difficile spores with an antibiotic, filtering the solution through cellulose acetate filters to collect the spores, applying the spore-containing filters to nutrient agar, and determining the number of spores remaining on the filters after a selected period of time.
Therefore, the initial experiment included dilution of antimicrobial-containing spore suspensions prior to filtration and washing. Reaction volumes were 1 mL for all antimicrobial/control solutions.
1 mL of control (de-ionised water+/−Tween-80) and test (antimicrobial containing) solutions were inoculated with 10 μL C. difficile spores (3 strains; PCR ribotypes 001, 106 and 027). Spore suspensions (time=1 min or 30 min) were transferred to filtration cupules and the appropriate volume of diluent (sterile de-ionised water+/−Tween-80) was added to achieve the dilution factors noted above. Samples were filtered onto cellulose acetate filters and washed with a further 50 mL of the appropriate diluent. Filters were transferred aseptically to Braziers CCEY agar containing 5 mg/L lysozyme and 2% lysed horse blood. This procedure was completed in duplicate. The culture media were incubated in an anaerobic atmosphere at 37° C. for 48 h and the numbers of C. difficile colonies were recorded.
Diluent was first added to filtration cupules. 1 mL reactions were then added to the appropriate diluent (1 min and 30 min after reaction formation) and filtered onto cellulose acetate filters. The filters were washed with 50 mL of the appropriate diluent. The filters were then transferred aseptically to Braziers CCEY agar containing 5 mg/L lysozyme and 2% lysed horse blood. This procedure was completed in duplicate. Culture media were incubated in an anaerobic atmosphere at 37° C. for 48 h and the numbers of C. difficile colonies recorded

`Cc1ncc([N+](=O)[O-])n1CCO` [metronidazole] gave an MIC90 ([1]; P80 no LHB) of 2 µg/mL (≈ 11.7 µM), an MIC range ([1]; P80 no LHB) of 0.25 to 2 µg/mL and an MIC90 ([1]; no P80 no LHB) of 2 µg/mL (≈ 11.7 µM). The MIC range ([1]; no P80 no LHB) was 0.25 to 4 µg/mL, the MIC90 ([1]; no P80 with LHB) was 2 µg/mL (≈ 11.7 µM) and the MIC range ([1]; no P80 with LHB) was 0.5 to 4 µg/mL. For the same molecule, the MIC ([1]; Clostridioides difficile, P80 no LHB) was 0.55 µg/mL (≈ 3.21 µM), the MIC ([1]; Clostridioides difficile, P80 with LHB) was 0.55 µg/mL (≈ 3.21 µM) and the MIC90 ([1]; Clostridioides difficile, P80 with LHB, read-out: MIC90) was 2 µg/mL (≈ 11.7 µM). For the same molecule, the MIC ([1]; Clostridioides difficile, no P80 no LHB) was 0.53 µg/mL (≈ 3.1 µM), the MIC ([1]; Clostridioides difficile, no P80 with LHB) was 0.69 µg/mL (≈ 4.03 µM) and the “Agar incorporation geometric mean MICs lower than oritavancin MICs” value ([1]; all agar conditions) was 2- to 5 fold. For the same molecule, the “Agar incorporation geometric mean MICs lower than vancomycin MICs” value ([1]; all agar conditions) was 2- to 3 fold, the “MICs for C. difficile vegetative cells versus spores” value [2] was “did not differ substantially” and the MIC90 [3] was 2 µg/mL (≈ 11.7 µM). The MIC ([3]; read-out: GEO MIC) was 0.56 µg/mL (≈ 3.27 µM), the “Outgrowth of C. difficile spores prior-exposed to antimicrobial” value [4] was “not observed” and the “Recovery of C. difficile spores” value ([5]; Example 3A: diluent added after reaction solutions, 1 min and 30 min exposure) was 90-110 % of controls. For the same molecule, the “Recovery of C. difficile spores” value ([5]; Example 3B: diluent added to cupules before reaction solutions, 1 min and 30 min) was 95-110 % of controls.
